# From patent publication US12371454B2, “Cyclic peptide compound having Kras inhibitory action” (priority 2019, dated 2025)
# Positions of bridges follow the written chain, without caps; N, C: chain ends. Non-standard residues stand in square brackets, D forms with d. Residues, ends and D or L forms follow the SMILES beside them. *: point of attachment. hPhe(3-Cl-4-CF3) = N[C@@H](CCc1ccc(C(F)(F)F)c(Cl)c1)C(=O)O; hPhe(3-F,4-CF3) = N[C@@H](CCc1ccc(C(F)(F)F)c(F)c1)C(=O)O; NMePhe(4-Cl) = CN[C@@H](Cc1ccc(Cl)cc1)C(=O)O; NMePhe(4-Me) = CN[C@@H](Cc1ccc(C)cc1)C(=O)O; NMePhe(3-I) = CN[C@@H](Cc1cccc(I)c1)C(=O)O; NMeAla(cPent) = CN[C@@H](CC1CCCC1)C(=O)O; NMeGly(cPent) = CN[C@H](C(=O)O)C1CCCC1; Phe(3-I) = N[C@@H](Cc1cccc(I)c1)C(=O)O; Phe(4-F) = N[C@@H](Cc1ccc(F)cc1)C(=O)O; NMeCha = CN[C@@H](CC1CCCCC1)C(=O)O; NMeI = CC[C@H](C)[C@H](NC)C(=O)O; hPhe = N[C@@H](CCc1ccccc1)C(=O)O; NMeD = CN[C@@H](CC(=O)O)C(=O)O; NMeL = CN[C@@H](CC(C)C)C(=O)O; Oxazolidin(3-yl) = C1CN(*)CO1; NMeV = CN[C@H](C(=O)O)C(C)C; d(β3hA) = C[C@@H](N)CC(=O)O; NMeA = CN[C@@H](C)C(=O)O; NMeAib = CNC(C)(C)C(=O)O; Nle = CCCC[C@H](N)C(=O)O; Piperidide = C1CCN(*)CC1; Pyrrolidide = C1CCN(*)C1; Ac5c = NC1(C(=O)O)CCCC1; Aze = O=C(O)[C@@H]1CCN1; Sar = CNCC(=O)O
# Biological target: T1, Kras and SOS1 (biotin-tagged human Kras loaded with GDP, His-tagged human SOS1) (Homo sapiens, UniProt P01116, G12D)
# T1 construct: made in house; host or cells: E. coli (stated for Kras only)
# Assay: Protein-protein interaction inhibition between Kras and SOS1 (KrasGl2D-SOS PPI) using AlphaScreen
# Assay type: binding
# Settings: AlphaScreen; biotin-tagged human Kras loaded with GDP, His-tagged human SOS1; read-out: KRAS G12D-SOS PPI IC50
# Outline: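 Donor beads (nickel) hold His-SOS1; acceptor beads (streptavidin) hold biotin-Kras bound to GDP. Signal measured at 520-620 nm following 680 nm excitation.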
# T1 sequence (P01116 1-188 isoform P01116-2 G12D): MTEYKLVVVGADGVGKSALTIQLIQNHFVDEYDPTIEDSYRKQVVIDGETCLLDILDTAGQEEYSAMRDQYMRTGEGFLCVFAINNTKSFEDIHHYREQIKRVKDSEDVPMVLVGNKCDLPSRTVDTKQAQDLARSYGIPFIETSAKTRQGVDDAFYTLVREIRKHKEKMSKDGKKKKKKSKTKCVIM
row,Structure (SMILES),IC50 [nM]
1,CC[C@H](C)[C@@H]1NC(=O)[C@H](CC(C)C)N(C)C(=O)C[C@@H](C(=O)N2CCCC2)NC(=O)[C@H](C(C)C)N(C)C(=O)C2(CCCC2)NC(=O)[C@@H]2CCCN2C(=O)[C@H](CCc2ccc(C(F)(F)F)c(Cl)c2)NC(=O)CN(C)C(=O)[C@H](CC2CCCCC2)N(C)C(=O)CN(C)C(=O)CN(C)C1=O [Compound 508] ([NMeL]I[Sar][Sar][NMeCha][Sar][hPhe(3-Cl-4-CF3)]P[Ac5c][NMeV]D-Pyrrolidide; lactam N-11),12
2,CC[C@H](C)[C@@H]1NC(=O)[C@H](CC(C)C)N(C)C(=O)C[C@@H](C(=O)N2CCOC2)NC(=O)[C@H]([C@@H](C)CC)N(C)C(=O)C2(CCCC2)NC(=O)[C@@H]2CCCN2C(=O)[C@H](CCc2ccc(C(F)(F)F)c(Cl)c2)NC(=O)CN(C)C(=O)[C@H](CC2CCCCC2)N(C)C(=O)CN(C)C(=O)CN(C)C1=O [Compound 1247] ([NMeL]I[Sar][Sar][NMeCha][Sar][hPhe(3-Cl-4-CF3)]P[Ac5c][NMeI]D-{Oxazolidin(3-yl)}; lactam N-11),4.8
3,"CC[C@H](C)[C@@H]1NC(=O)[C@H](C(C)C)N(C)C(=O)C[C@@H](C)NC(=O)[C@H](CC(C)C)N(C)C(=O)C2(CCCC2)NC(=O)[C@H](CC(C)C)N(C)C(=O)[C@H](CCc2ccc(C(F)(F)F)c(F)c2)NC(=O)CN(C)C(=O)[C@H](Cc2ccc(Cl)cc2)N(C)C(=O)CN(C)C(=O)CN(C)C1=O [Compound 851] (cyclo([Ac5c][NMeL][d(β3hA)][NMeV]I[Sar][Sar][NMePhe(4-Cl)][Sar][hPhe(3-F,4-CF3)][NMeL]))",27
4,CC[C@H](C)[C@@H]1NC(=O)[C@H](CC(C)C)N(C)C(=O)C[C@@H](C(=O)N2CCCCC2)N(C)C(=O)[C@H](C(C)C)N(C)C(=O)C2(CCCC2)NC(=O)[C@@H]2CCCN2C(=O)[C@H](CCc2ccccc2)NC(=O)CN(C)C(=O)[C@H](CC2CCCCC2)N(C)C(=O)CN(C)C(=O)CN(C)C1=O [Compound 265] ([NMeL]I[Sar][Sar][NMeCha][Sar][hPhe]P[Ac5c][NMeV][NMeD]-Piperidide; lactam N-11),280
5,CCCC[C@@H]1NC(=O)[C@H](Cc2ccc(F)cc2)NC(=O)CN(C)C(=O)[C@H](Cc2ccc(Cl)cc2)N(C)C(=O)CN(C)C(=O)CN(C)C(=O)[C@H]([C@@H](C)CC)NC(=O)[C@H](CC(C)C)N(C)C(=O)C[C@@H](C(=O)N2CCCCC2)N(C)C(=O)[C@H](CC(C)C)NC(=O)C(C)(C)N(C)C1=O [Compound 1305] ([NMeL]I[Sar][Sar][NMePhe(4-Cl)][Sar][Phe(4-F)][Nle][NMeAib]L[NMeD]-Piperidide; lactam N-11),240
6,CCCC[C@@H]1NC(=O)[C@H](Cc2cccc(I)c2)NC(=O)CN(C)C(=O)[C@H](CC2CCCC2)N(C)C(=O)CN(C)C(=O)CN(C)C(=O)[C@H]([C@@H](C)CC)NC(=O)[C@H](CC(C)C)N(C)C(=O)C[C@@H](C(=O)N2CCCCC2)N(C)C(=O)[C@H](CC(C)C)NC(=O)C(C)(C)N(C)C1=O [Compound 1423] ([NMeL]I[Sar][Sar][NMeAla(cPent)][Sar][Phe(3-I)][Nle][NMeAib]L[NMeD]-Piperidide; lactam N-11),190
7,CC[C@H](C)[C@@H]1NC(=O)[C@H](CC(C)C)N(C)C(=O)C[C@@H](C(=O)N(C)C)N(C)C(=O)[C@H]([C@@H](C)CC)N(C)C(=O)C2(CCCC2)NC(=O)[C@@H]2CCCN2C(=O)[C@H](CCc2ccc(C(F)(F)F)c(Cl)c2)NC(=O)CN(C)C(=O)[C@H](CC2CCCCC2)N(C)C(=O)CN(C)C(=O)CN(C)C1=O [Compound 1865] ([NMeL]I[Sar][Sar][NMeCha][Sar][hPhe(3-Cl-4-CF3)]P[Ac5c][NMeI][NMeD]-NMe2; lactam N-11),0.43
8,CC[C@H](C)[C@@H]1NC(=O)[C@H](C)N(C)C(=O)C[C@@H](C(=O)N(C)C)N(C)C(=O)[C@H]([C@@H](C)CC)N(C)C(=O)C2(CCCC2)NC(=O)[C@H](Cc2cccc(I)c2)N(C)C(=O)[C@H](CCc2ccc(C(F)(F)F)c(Cl)c2)NC(=O)CN(C)C(=O)[C@H](Cc2ccc(C)cc2)N(C)C(=O)[C@@H]2CCN2C(=O)[C@H](C)N(C)C1=O [Compound 1944] ([NMeA]I[NMeA][Aze][NMePhe(4-Me)][Sar][hPhe(3-Cl-4-CF3)][NMePhe(3-I)][Ac5c][NMeI][NMeD]-NMe2; lactam N-11),45
9,CC[C@H](C)[C@@H]1NC(=O)[C@H](CC(C)C)N(C)C(=O)C[C@@H](C(=O)N(C)C)N(C)C(=O)[C@H](C2CCCC2)N(C)C(=O)[C@H](C)NC(=O)[C@H](C)N(C)C(=O)[C@H](CCc2ccc(C(F)(F)F)c(Cl)c2)NC(=O)CN(C)C(=O)[C@H](CC2CCCCC2)N(C)C(=O)[C@@H]2CCN2C(=O)[C@H](C)N(C)C1=O [Compound 993] ([NMeL]I[NMeA][Aze][NMeCha][Sar][hPhe(3-Cl-4-CF3)][NMeA]A[NMeGly(cPent)][NMeD]-NMe2; lactam N-11),16
